In US20200392150A1, “Diaryl-B-Lactam Compound and Preparation Method and Pharmaceutical Use Thereof” (Fudan University, priority 2016, published 2020):
Entries after “also recorded” stand apart in the source; their conditions may differ.

Key:
A2780 = test: In vitro cell growth inhibition assay (MTT); format: cell-based, human; settings: A2780 human ovarian cancer cell line, 48 h, MTT; read-out: IC50 A2780
Method in brief: (§1)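 Following overnight adherence of 5000 cells per well, compounds or 0.2% DMSO were applied for 48 h. Medium was then swapped for 0.5 mg/mL MTT medium (4 h, 37° C), crystals dissolved in DMSO, and plates read at 540 nm.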

SKOV3 = test: In vitro cell growth inhibition assay (MTT); format: cell-based, human; settings: SK-OV-3; SKOV-3 human ovarian cancer cell line, 48 h, MTT; read-out: IC50 SKOV3
Method in brief: as §1

MDA-MB-231 = test: In vitro cell growth inhibition assay (MTT); format: cell-based, human; settings: MDA-MB-231 human breast cancer cell line, 48 h, MTT; read-out: IC50 MDA-MB-231
Method in brief: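 IC50 values come from growth inhibition rates calculated from MTT absorbance at 540 nm. Compound exposure lasted 48 h on cells plated at 5000 per well.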

Hela = test: In vitro cell growth inhibition assay (MTT); format: cell-based, human; settings: Hela human cervical cancer cell line, 48 h, MTT; read-out: IC50 Hela
Method in brief: as §1

Acute toxicity assay = format: in vivo; settings: both sexes, mouse, in vivo, ip; KM mice, single intraperitoneal injection, 14 days
Experimental: KM mice were housed individually in a specific pathogen free facility. Groups of mice (n=10 per group, half male and half female) were injected intraperitoneally once with various dosages of 69 (95, 70, 50, 35, 25 mg/kg), 70 (500, 425, 350, 275, 200 mg/kg), 97 (275, 200, 150, 125 and 100 mg/kg) or vehicle (8.3% cremohorp EL and 8.3% alcohol in PBS) as negative control, respectively. 69, 70 and 97 was dissolved in cremeohore EL and alcohol mixture (1:1, v/v) and further diluted with PBS (1:5, v/v). The death of mice were monitored daily and recorded up to 14 days after injection.

tubulin in Hela cells = test: Immunoblotting analysis of polymerized/depolymerized tubulin; format: cell-based, human; settings: 6 h
Experimental: After being treated with diluent (0.2% DMSO), tested compound, CA-4 or PTX for 6 h, Hela cells were lysed with microtubulestabilizing buffer, containing 100 mM PIPES, pH 6.8, 1 mM MgCl2, 2 mM EGTA, 0.5% NP-40, 2 M glycerol, 5 μM PTX and protease inhibitors cocktail (Roche), and the lysate was centrifuged at 15,000 rpm for 15 min. Supernatant containing depolymerized tubulin was carefully collected, whereas pellet (polymerized tubulin) was further dissolved in SDS-lysis buffer (Beyotime, China). Equal amounts of supernatant and dissolved pellet were subjected to immunoblotting analysis as described above using atubulin antibody (Proteintech).

MDA-MB-231 cells = test: Colony formation assay; format: cell-based, human; settings: 48 h treatment, 7-10 days growth
Experimental: 1000 MDA-MB-231 cells per well were seeded into 6-well plate at a single cell density and were cultured at 37° C. for 48 h. After being treated with indicated concentrations of 69, 70 and 97, CA-4 as positive control, or diluent (0.2% DMSO) as negative control for 48 h, the agents containing medium was replaced by fresh medium to allow cell growth for additional 7-10 days. Then the cells were fixed with methanol and stained with gentian violet for 30 min.
The number of colonies which consisted of more than 50 cells were counted. The results were indicated as mean values from three independent determinations.

[1] = tested on: p-histone H3, cyclin B1 and BuBR1 in HeLa cells; test: Cell cycle associated proteins assay; format: cell-based, human; settings: 24 h, western blot and qPCR
Experimental: A. HeLa cells were treated with 69, 70, 97 or DMSO for 24 h. After being harvested, the cells were lysed, and the concentrations of total protein were determined by BCA protein assay kit (Beyotime, China). […] The membrane was blocked with 5% BSA in TBST for 1.5 h, then incubated overnight with specific primary antibodies (Proteintech) at 4° C. After being washed three times by TBST, the membrane was incubated with specific secondary antibodies (Abnova, Taipei, China) at room temperature for 2 h. Finally, chemiluminescent reagents (Millipore) were employed to detect the protein bands.
B. Quantitative PCR assay: HeLa cells were treated with 69, 70 or 97. The expression level of mRNA of target proteins was tested with qPCR kit (Takara).

[2] = tested on: human umbilical veinendothelial cells (HUVECs); test: Capillary-like tube formation assay; format: cell-based; settings: HUVECs on matrigel, 12 h
Experimental: […] matrigel (Corning) per well was added to 96-well plate and pre-incubated at 37° C. for 1 h for gelation. 3*10^4 human umbilical veinendothelial cells (HUVECs) in […] medium per well containing indicated concentrations of 69, 70 and 97, CA-4 as positive control, or diluent (0.2% DMSO) as negative control, respectively, were seeded to 96-well plates on the matrigel layer, followed by continual incubation at 37° C. for 12 h to allow capillary-like tube formation. Images were captured with a CCD Sensicam camera mounted on an Olympus inverted microscope. Representative data from three independent experiments were shown.

cells = test: Cell apoptosis analysis (Annexin V/PI flow cytometry); format: cell-based; settings: 48 h
Experimental: Cell apoptosis was detected using FITC Annexin V Apoptosis Detection Kit (BD Biosciences) according to manufacturer's instructions. Briefly, cells were incubated with indicated concentrations of 69, 70 and 97, CA-4 as positive control or diluent (0.2% DMSO) as negative control for 48 h. Then the cells were harvested, washed twice with PBS, and re-suspended in binding buffer. After being stained with Annexin-V and PI for 15 min in the dark place, cells were subjected to flow cytometry (Cytomics FC 500 MPL, Beckman Coulter) analysis. The results were indicated as mean values from three independent determinations.

Row | Compound | IC50 (A2780) [nM] | IC50 (SKOV3) [nM] | IC50 (MDA-MB-231) [nM] | IC50 (Hela) [nM] | LD50 at 14 days (Acute toxicity assay) [mg/kg] | polymerized tubulin (immunoblotting) (tubulin in Hela cells) | colony formation (MDA-MB-231 cells) | expression of p-histone H3, cyclin B1 and BuBR1 [1] | capillary-like tube formation [2] | cellular apoptosis (cells)
1 | COc1ccc([C@H]2[C@@H](C)C(=O)N2c2cc(OC)c(OC)c(OC)c2)cc1O [Compound 70, (3R,4R)-4-(3-hydroxy-4-methoxyphenyl)-3-methyl-1-(3,4,5-trimethoxyphenyl)azetidin-2-one] | 35 | 51 | 67 | 74 | > 500 | significantly inhibit tubulin aggregation; also recorded: dramatically reduction of polymerized tubulin | significantly inhibit the formation of colonies; also recorded: dose-dependently reduced | significantly promote the expression of phosphorylated histone H3, cyclinB1, and mitotic checkpoint protein BuBR1; also recorded: significantly induce the expression of p-histone H3, cyclin B1 and BuBR1 | significantly inhibit the formation of capillary-like structures; also recorded: almost completely disrupted the capillary-like tube formation | significantly promote apoptosis; also recorded: significantly induce cellular apoptosis
2 | COc1ccc([C@H]2[C@H](CO)C(=O)N2c2cc(OC)c(OC)c(OC)c2)cc1O [Compound 69, (3R,4R)-4-(3-hydroxy-4-methoxyphenyl)-3-(hydroxymethyl)-1-(3,4,5-trimethoxyphenyl)azetidin-2-one] |  |  |  |  |  | significantly inhibit tubulin aggregation; also recorded: dramatically reduction of polymerized tubulin | significantly inhibit the formation of colonies; also recorded: dose-dependently reduced | significantly promote the expression of phosphorylated histone H3, cyclinB1, and mitotic checkpoint protein BuBR1; also recorded: significantly induce the expression of p-histone H3, cyclin B1 and BuBR1 | significantly inhibit the formation of capillary-like structures; also recorded: almost completely disrupted the capillary-like tube formation | significantly promote apoptosis; also recorded: significantly induce cellular apoptosis
3 | COc1ccc([C@H]2[C@H](C)C(=O)N2c2cc(OC)c(OC)c(OC)c2)cc1O [Compound 97, (3S,4R)-4-(3-hydroxy-4-methoxyphenyl)-3-methyl-1-(3,4,5-trimethoxyphenyl)azetidin-2-one] | 2 | 3 | 3 | 1 |  | significantly inhibit tubulin aggregation; also recorded: dramatically reduction of polymerized tubulin | significantly inhibit the formation of colonies; also recorded: dose-dependently reduced | significantly promote the expression of phosphorylated histone H3, cyclinB1, and mitotic checkpoint protein BuBR1; also recorded: significantly induce the expression of p-histone H3, cyclin B1 and BuBR1 | significantly inhibit the formation of capillary-like structures; also recorded: almost completely disrupted the capillary-like tube formation | significantly promote apoptosis; also recorded: significantly induce cellular apoptosis
